Data: patent publication US6924314B2, “Compounds for the treatment of metabolic disorders” (Wellstat Therapeutics Corporation, priority 2001, dated 2005)

Assays:
[1] = tested on: db/db mice; assay: Antidiabetic effects in db/db mice, four weeks of daily oral dosing; assay type: in vivo; settings: 100 mg/kg daily oral, four weeks
From the text: Db/db mice have a defect in leptin signaling, leading to hyperphagia, obesity and diabetes. Moreover, unlike ob/ob mice which have relatively robust islets, their insulin-producing pancreatic islet cells undergo failure during chronic hyperglycemia, so that they transition from hyperinsulinemia (associated with peripheral insulin resistance) to hypoinsulinemic diabetes.
Male db/db mice were given daily oral treatments with vehicle (0.75% hydroxypropylmethylcellulose) or antidiabetic compounds as indicated below. Blood samples were obtained via the retro-orbital sinus for serum chemistry analysis, or via the tail vein for glucose measurement with a test strip and glucometer.
The dose of pioglitazone used in this experiment was reported in the literature to be a maximally-effective dose for treatment of db/db mice (Shimaya et al. (2000), Metabolism 49:411-7).

[2] = tested on: mice with lethal insulin-dependent diabetes; assay: Survival of mice with lethal insulin-dependent diabetes (single dose streptozotocin); assay type: in vivo, Balb/C mice; settings: 30 mg/kg/day oral gavage
Description: Female Balb/C mice (14 weeks old) were treated with a single dose of streptozotocin (175 mg/kg i.p.) to induce severe insulin-dependent diabetes. Seven days later, mice were divided into three treatment groups: Compound AH, pioglitazone, and vehicle. Mice were treated daily via oral gavage, and survival was monitored over time.

[3] = tested on: ob/ob mice; assay: Hyperglycemia, hyperlipidemia, fatty liver disease and weight gain in ob/ob obese diabetic mice, daily oral dosing; assay type: in vivo, C57BL/6 mice; settings: for Free Fatty Acids ± SEM / Glucose ± SEM / Triglycerides ± SEM / ALT (U/L) ± SEM / AST (U/L) ± SEM / SDH (U/L) ± SEM: 4 weeks; for Mean body weight gain (grams): four week treatment period; for ALT (U/L) ± SEM / AST (U/L) ± SEM / SDH (U/L) ± SEM: serum
From the text: Ob/ob mice have a defect in the gene for leptin, a protein involved in appetite regulation and energy metabolism, and are hyperphagic, obese, and insulin resistant. They develop hyperglycemia and fatty liver.

[4] = tested on: high fat-fed C57Bl/6J mice; assay: Circulating triglycerides, free fatty acids, insulin and leptin in high fat-fed C57Bl/6J mice; assay type: in vivo; settings: after 2 weeks of drug treatments
From the text: The high fat-fed mouse is a model for the hypertriglyceridemia and high circulating fatty acid levels, and the insulin and leptin resistance that are found in people at risk for and with obesity, diabetes, cardiovascular disease and other disorders. Male C57Bl/6J mice, approximately 8 weeks of age, were randomly assigned into groups of 6 animals. […] Mice were fed a high-fat diet (diet number D12451, containing 45% of calories as fat (Research Diets, New Brunswick, N.J.)) for 6 weeks. […]

[5] = tested on: db/db mice; assay: Antidiabetic effects in db/db mice, second experiment, 8 weeks of treatment; assay type: in vivo; settings: 20 mg/kg, 8 weeks of treatment
From the text: Blood samples were obtained via the retro-orbital sinus for serum chemistry analysis, or via the tail vein for glucose measurement with a test strip and glucometer.
Groups consisted of 6-8 mice each.

CCc1ccc(CCOc2ccc(CC3SC(=O)NC3=O)cc2)nc1 (centres unmarked) [Pioglitazone, pioglitazone, reference compound]
Glucose [1]: 558 ± 28 mg/dL | Glucose (% of Control) [1]: 99 ± 5 % of Control | body weight lost by survivors at 12 weeks [2]: 15-20% | Survivors (Survival at 12 weeks) ([2]; STZ 175 mg/kg i.p. Balb/C mice): 2/5 | Free Fatty Acids ± SEM ([3]; 30 mg/kg/day oral): 2606 ± 139.2 µmol/L | Glucose ± SEM ([3]; 30 mg/kg/day oral): 188.2 ± 21.4 mg/dL | Triglycerides ± SEM ([3]; 30 mg/kg/day oral): 111.2 ± 7.5 mg/dL | Mean body weight gain (grams) ([3]; 30 mg/kg/day): +10.0 grams | Free Fatty Acids ± SEM ([3]; 100 mg/kg/day oral): 1983.4 ± 66.1 µmol/L | Glucose ± SEM ([3]; 100 mg/kg/day oral): 174.6 ± 11.5 mg/dL | Triglycerides ± SEM ([3]; 100 mg/kg/day oral): 95.2 ± 4.8 mg/dL | Mean body weight gain (grams) ([3]; 100 mg/kg/day): +13.6 grams | ALT (U/L) ± SEM ([3]; 30 mg/kg/day oral): 713.6 ± 80.6 U/L | AST (U/L) ± SEM ([3]; 30 mg/kg/day oral): 1024 ± 88.7 U/L | SDH (U/L) ± SEM ([3]; 30 mg/kg/day oral): 782.0 ± 70.6 U/L | ALT (U/L) ± SEM ([3]; 100 mg/kg/day oral): 646.0 ± 56.1 U/L | AST (U/L) ± SEM ([3]; 100 mg/kg/day oral): 901.0 ± 49.3 U/L | SDH (U/L) ± SEM ([3]; 100 mg/kg/day oral): 603.0 ± 27.3 U/L

CN(CCOc1ccc(CC2SC(=O)NC2=O)cc1)c1ccccn1 (centres unmarked) [Rosiglitazone, rosiglitazone, reference compound]
Free Fatty Acids ([4]; 1 mg/kg oral gavage): 1537 ± 256.3 µmol/L | Triglycerides ([4]; 1 mg/kg oral gavage): 76.6 ± 16.5 mg/dL | Free Fatty Acids ([4]; 3 mg/kg oral gavage): 1833.2 ± 169.8 µmol/L | Triglycerides ([4]; 3 mg/kg oral gavage): 103.2 ± 10.8 mg/dL | Free Fatty Acids ([4]; 10 mg/kg oral gavage): 1810.3 ± 595 µmol/L | Triglycerides ([4]; 10 mg/kg oral gavage): 129.5 ± 48.7 mg/dL | Free Fatty Acids ([4]; 100 mg/kg oral gavage): 1568.5 ± 197 µmol/L | Triglycerides ([4]; 100 mg/kg oral gavage): 88 ± 7.2 mg/dL | Glucose [5]: 343 ± 38 mg/dL | Triglycerides [5]: 89 ± 16 mg/dL | Free Fatty Acids ± SEM ([3]; 1 mg/kg/day oral): 2090.75 ± 67.7 µmol/L | Glucose ± SEM ([3]; 1 mg/kg/day oral): 142.75 ± 8.8 mg/dL | Triglycerides ± SEM ([3]; 1 mg/kg/day oral): 109.75 ± 4.4 mg/dL | Mean body weight gain (grams) ([3]; 1 mg/kg/day): +8.2 grams | Free Fatty Acids ± SEM ([3]; 3 mg/kg/day oral): 2317.6 ± 85.3 µmol/L | Glucose ± SEM ([3]; 3 mg/kg/day oral): 190.2 ± 12.7 mg/dL | Triglycerides ± SEM ([3]; 3 mg/kg/day oral): 107.8 ± 3.8 mg/dL | Mean body weight gain (grams) ([3]; 3 mg/kg/day): +8.5 grams | Free Fatty Acids ± SEM ([3]; 10 mg/kg/day oral): 2606.4 ± 139.2 µmol/L | Glucose ± SEM ([3]; 10 mg/kg/day oral): 188.2 ± 21.4 mg/dL | Triglycerides ± SEM ([3]; 10 mg/kg/day oral): 111.2 ± 7.5 mg/dL | Mean body weight gain (grams) ([3]; 10 mg/kg/day): +11.0 grams | Free Fatty Acids ± SEM ([3]; 30 mg/kg/day oral): 1983.4 ± 66.1 µmol/L | Glucose ± SEM ([3]; 30 mg/kg/day oral): 174.6 ± 11.5 mg/dL | Triglycerides ± SEM ([3]; 30 mg/kg/day oral): 95.2 ± 4.8 mg/dL | Mean body weight gain (grams) ([3]; 30 mg/kg/day): +12.0 grams
